The test system of the assay is CCRF-CEM/VCR-1000. The assay can be described thus: MDR-modulating activity as a measure to inhibit P-glycoprotein (PGP) mediated transmembrane transport in human T-lymphoblast cell line CEM vcr 1000 using the daunomycin efflux assay. The format is functional, cell-based.

pEC50: −log10 of the molar value.

What is called pEC50 is the EC50 on a negative log10 scale, so that one unit is a factor of ten. Higher therefore signals a small EC50. With `C[C@H](O)COc1ccccc1[C@@H](C)O`, the pEC50 was 5.85. `C[C@H](O)c1ccccc1OC[C@@H](C)O` had a pEC50 of 6.24. Then `CCCNC[C@H](O)COc1ccccc1C(=O)CCc1ccccc1`, with 6.43; and `CCCNC[C@@H](O)COc1ccccc1C(=O)CCc1ccccc1`, with 6.59.

The compound `C[C@H](O)COc1ccccc1[C@H](C)O` gave a pEC50 of 5.81. The same measure for `C[C@@H](O)COc1ccccc1[C@@H](C)O`: 6.11.

For the origin of these results see ChEMBL document CHEMBL1130779, “Synthesis and pharmacological activity of the stereoisomers of GP-88, a propafenone-type modulator of multidrug resistance” (Bioorg Med Chem Lett, 1998).
